System: TPM3-NTRK1-wt IC50 / primary target (e.g. CD74-ROS1-wt) IC50, Ba/F3 cells
Assay: Cell assay TRKA selectivity (TRKA potency divided by primary target potency)
Assay type: cell-based
Conditions: for TPM3-NTRK1-wt/CD74-ROS1-G2032R: TRKA selectivity ratio: TPM3-NTRK1-wt IC50 / CD74-ROS1-G2032R IC50, Ba/F3 cells; for TPM3-NTRK1-wt/CD74-ROS1-wt: TRKA selectivity ratio: TPM3-NTRK1-wt IC50 / CD74-ROS1-wt IC50, Ba/F3 cells; for TPM3-NTRK1-wt/EML4-ALK-L1196M-G1202R: TRKA selectivity ratio: TPM3-NTRK1-wt IC50 / EML4-ALK-L1196M-G1202R IC50, Ba/F3 cells; for TPM3-NTRK1-wt/EML4-ALK-wt: TRKA selectivity ratio: TPM3-NTRK1-wt IC50 / EML4-ALK-wt IC50, Ba/F3 cells
Procedure, shortened: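 Ratio of TRKA to primary-target cellular IC50 (e.g. TPM3-NTRK1-wt/CD74-ROS1-wt), grouped into bins A >30, B >10, C ≥1, D <1. Each IC50 came from engineered Ba/F3 fusion lines grown without IL-3, dosed for 72 h and read as CellTiter-Glo luminescence, with a four-parameter logistic fit.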

Compound | TPM3-NTRK1-wt/CD74-ROS1-G2032R | TPM3-NTRK1-wt/CD74-ROS1-wt | TPM3-NTRK1-wt/EML4-ALK-L1196M-G1202R | TPM3-NTRK1-wt/EML4-ALK-wt
CCn1ncc2c1-c1cnc(N)c(c1)OCc1cc(F)ccc1-n1nc(Cl)cc1C2 [Example 75, 10-chloro-3-ethyl-16-fluoro-20-oxa-3,4,11,12,23-pentaazapentacyclo[19.3.1.0^2,^6.0^8,^12.0^13,^18]pentacosa-1(24),2(6),4,8,10,13,15,17,21(25),22-decaen-22-amine] | A (bin A for very high selectivity, ratio>30-fold) | A (bin A for very high selectivity, ratio>30-fold) | C (bin C for moderate selectivity, ratio≥1) | A (bin A for very high selectivity, ratio>30-fold)
C[C@H]1Oc2cc(cnc2N)-c2c(C#N)ncn2Cc2cnccc2-c2ccc(F)cc21 [Example 10, (20R)-23-amino-17-fluoro-20-methyl-21-oxa-4,6,10,24-tetraazapentacyclo[20.3.1.0^2,^6.0^8,^13.0^14,^19]hexacosa-1(25),2,4,8(13),9,11,14,16,18,22(26),23-undecaene-3-carbonitrile] | A (bin A for very high selectivity, ratio>30-fold) | D (bin D for low selectivity, ratio<1) | C (bin C for moderate selectivity, ratio≥1) | A (bin A for very high selectivity, ratio>30-fold)
Cc1cn2c(n1)-c1ccc(F)cc1[C@@H](C)Oc1cc(cnc1N)-c1c(c(C)nn1CC1CC1)C2 [Example 56, (19R)-3-(cyclopropylmethyl)-16-fluoro-5,10,19-trimethyl-20-oxa-3,4,8,11,23-pentaazapentacyclo[19.3.1.0^2,^6.0^8,^12.0^13,^18]pentacosa-1(24),2(6),4,9,11,13,15,17,21(25),22-decaen-22-amine] | D (bin D for low selectivity, ratio<1) | D (bin D for low selectivity, ratio<1) | D (bin D for low selectivity, ratio<1) | D (bin D for low selectivity, ratio<1)
CCc1nnn2c1-c1cnc(N)c(c1)O[C@H](C)c1cc(F)ccc1-c1ncc(F)cc1C2 [Example 16, (20R)-3-ethyl-10,17-difluoro-20-methyl-21-oxa-4,5,6,12,24-pentaazapentacyclo[20.3.1.0^2,^6.0^8,^13.0^14,^19]hexacosa-1(25),2,4,8(13),9,11,14,16,18,22(26),23-undecaen-23-amine] | B (bin B for high selectivity, ratio>10-fold) | A (bin A for very high selectivity, ratio>30-fold) | C (bin C for moderate selectivity, ratio≥1) | B (bin B for high selectivity, ratio>10-fold)
CCn1cc2c(n1)-c1ccc(F)cc1[C@@H](C)Oc1cc(cnc1N)-c1c(cnn1CC1CC1)C2 [Example 140, (19R)-3-(cyclopropylmethyl)-10-ethyl-16-fluoro-19-methyl-20-oxa-3,4,10,11,23-pentaazapentacyclo[19.3.1.0^2,^6.0^8,^12.0^13,^18]pentacosa-1(24),2(6),4,8,11,13,15,17,21(25),22-decaen-22-amine] | A (bin A for very high selectivity, ratio>30-fold) | A (bin A for very high selectivity, ratio>30-fold) | A (bin A for very high selectivity, ratio>30-fold) | A (bin A for very high selectivity, ratio>30-fold)
CC1Oc2cc(cnc2N)-c2c(cnn2C2CCC2)Cn2ccnc2-c2ccc(F)cc21 (centres unmarked) [Example 37, 3-cyclobutyl-16-fluoro-19-methyl-20-oxa-3,4,8,11,23-pentaazapentacyclo[19.3.1.0^2,^6.0^8,^12.0^13,^18]pentacosa-1(24),2(6),4,9,11,13,15,17,21(25),22-decaen-22-amine] | A (bin A for very high selectivity, ratio>30-fold) | A (bin A for very high selectivity, ratio>30-fold) | A (bin A for very high selectivity, ratio>30-fold) | A (bin A for very high selectivity, ratio>30-fold)
CC1Oc2cc(cnc2N)-c2c(n[nH]c2C#N)Cc2cnn(C)c2-c2ccc(F)cc21 (centres unmarked) [Example 168, 22-amino-16-fluoro-11,19-dimethyl-20-oxa-4,5,10,11,23-pentaazapentacyclo[19.3.1.0^2,^6.0^8,^12.0^13,^18]pentacosa-1(24),2,5,8(12),9,13,15,17,21(25),22-decaene-3-carbonitrile] | A (bin A for very high selectivity, ratio>30-fold) | A (bin A for very high selectivity, ratio>30-fold) | B (bin B for high selectivity, ratio>10-fold) | A (bin A for very high selectivity, ratio>30-fold)
CCn1ncc2c1-c1cnc(N)c(c1)O[C@H](C)c1cc(F)ccc1-n1nncc1C2 [Example 43, (19R)-3-ethyl-16-fluoro-19-methyl-20-oxa-3,4,10,11,12,23-hexaazapentacyclo[19.3.1.0^2,^6.0^8,^12.0^13,^18]pentacosa-1(24),2(6),4,8,10,13,15,17,21(25),22-decaen-22-amine] | A (bin A for very high selectivity, ratio>30-fold) | A (bin A for very high selectivity, ratio>30-fold) | C (bin C for moderate selectivity, ratio≥1) | B (bin B for high selectivity, ratio>10-fold)
CCc1onc2c1-c1cnc(N)c(c1)O[C@H](C)c1cc(F)ccc1-c1nn(C)cc1C2 [Example 152, (19R)-3-ethyl-16-fluoro-10,19-dimethyl-4,20-dioxa-5,10,11,23-tetraazapentacyclo[19.3.1.0^2,^6.0^8,^12.0^13,^18]pentacosa-1(24),2,5,8,11,13,15,17,21(25),22-decaen-22-amine] | A (bin A for very high selectivity, ratio>30-fold) | A (bin A for very high selectivity, ratio>30-fold) | C (bin C for moderate selectivity, ratio≥1) | A (bin A for very high selectivity, ratio>30-fold)
CCn1ncc2c1-c1cnc(N)c(c1)O[C@H](C)c1cc(F)ccc1-c1ncoc1C2 [Example 77, (19R)-3-ethyl-16-fluoro-19-methyl-9,20-dioxa-3,4,11,23-tetraazapentacyclo[19.3.1.0^2,^6.0^8,^12.0^13,^18]pentacosa-1(24),2(6),4,8(12),10,13,15,17,21(25),22-decaen-22-amine] | A (bin A for very high selectivity, ratio>30-fold) | A (bin A for very high selectivity, ratio>30-fold) | C (bin C for moderate selectivity, ratio≥1) | A (bin A for very high selectivity, ratio>30-fold)
C[C@H]1Oc2cc(cnc2N)-c2c(cnn2CC(F)(F)F)Cc2cn(C)nc2-c2ccc(F)cc21 [Example 27, (19R)-16-fluoro-10,19-dimethyl-3-(2,2,2-trifluoroethyl)-20-oxa-3,4,10,11,23-pentaazapentacyclo[19.3.1.0^2,^6.0^8,^12.0^13,^18]pentacosa-1(24),2(6),4,8,11,13,15,17,21(25),22-decaen-22-amine] | A (bin A for very high selectivity, ratio>30-fold) | A (bin A for very high selectivity, ratio>30-fold) | A (bin A for very high selectivity, ratio>30-fold) | A (bin A for very high selectivity, ratio>30-fold)
C[C@H]1Oc2cc(cnc2N)-c2c(C#N)nn(C)c2Cc2scnc2-c2ccc(F)cc21 [Example 94, (19R)-22-amino-16-fluoro-5,19-dimethyl-20-oxa-9-thia-4,5,11,23-tetraazapentacyclo[19.3.1.0^2,^6.0^8,^12.0^13,^18]pentacosa-1(24),2(6),3,8(12),10,13,15,17,21(25),22-decaene-3-carbonitrile] | A (bin A for very high selectivity, ratio>30-fold) | A (bin A for very high selectivity, ratio>30-fold) | A (bin A for very high selectivity, ratio>30-fold) | A (bin A for very high selectivity, ratio>30-fold)
CCn1ncc2c1-c1cnc(N)c(c1)O[C@H](C)c1cc(F)ccc1-n1nc(F)cc1C2 [Example 71, (19R)-3-ethyl-10,16-difluoro-19-methyl-20-oxa-3,4,11,12,23-pentaazapentacyclo[19.3.1.0^2,^6.0^8,^12.0^13,^18]pentacosa-1(24),2(6),4,8,10,13,15,17,21(25),22-decaen-22-amine] | A (bin A for very high selectivity, ratio>30-fold) | B (bin B for high selectivity, ratio>10-fold) | C (bin C for moderate selectivity, ratio≥1) | B (bin B for high selectivity, ratio>10-fold)
CCn1nnc2c1-c1cnc(N)c(c1)O[C@H](C)c1cc(F)ccc1-c1ncc(F)cc1C2 [Example 70, (20R)-3-ethyl-10,17-difluoro-20-methyl-21-oxa-3,4,5,12,24-pentaazapentacyclo[20.3.1.0^2,^6.0^8,^13.0^14,^19]hexacosa-1(25),2(6),4,8(13),9,11,14,16,18,22(26),23-undecaen-23-amine] | A (bin A for very high selectivity, ratio>30-fold) | A (bin A for very high selectivity, ratio>30-fold) | C (bin C for moderate selectivity, ratio≥1) | A (bin A for very high selectivity, ratio>30-fold)

— patent US11667649B2, “Heteroaromatic macrocyclic ether chemotherapeutic agents” (Nuvalent, Inc., priority 2020, dated 2023)
